Measurements published in EP2735339B1, “Extract and isolated compounds from Drechslera rostrata and/or Eurotium tonophilum for use as anti-leishmania-major agents” (King Saud University, priority 2012, dated 2014).
≈ marks a conversion by molar mass, not a printed value. Where two headings read alike, the source gives them in different places.

How the values were obtained:
[1] = system: leishmania; settings: against leishmania; cited from earlier work
[2] = system: Leishmania major; assay: In vivo anti-leishmanial activity, lesion size in infected mice under oral treatment; settings: for Mean + SD lesion size(mm), day 1 of treatment: day 1 of oral treatment; for Mean + SD lesion size(mm), day 1 of treatment / Mean + SD lesion size(mm), day 4 of treatment / Mean + SD lesion size(mm), day 8 of treatment / Mean + SD lesion size(mm), day 11 of treatment / Mean + SD lesion size(mm), day 15 of treatment / Mean + SD lesion size(mm), day 18 of treatment / Mean + SD lesion size(mm), day 25 of treatment / Mean + SD lesion size(mm), day 28 of treatment: mice infected with L.major, n = 6; for Mean + SD lesion size(mm), day 4 of treatment: day 4 of oral treatment; for Mean + SD lesion size(mm), day 8 of treatment: day 8 of oral treatment; for Mean + SD lesion size(mm), day 11 of treatment: day 11 of oral treatment; for Mean + SD lesion size(mm), day 15 of treatment: day 15 of oral treatment; for Mean + SD lesion size(mm), day 18 of treatment: day 18 of oral treatment; for Mean + SD lesion size(mm), day 25 of treatment: day 25 of oral treatment; for Mean + SD lesion size(mm), day 28 of treatment: day 28 of oral treatment
Method: Balb/c mice ([…]) males were provided by Girls collage of science, Zoology department, King Saud University, Riyadh, KSA). The animals were housed in standard plastic cages and were maintained on standard feed and water ad libitum.
Each mouse was inoculated in the lumbar area with 10^7 of stationary phase Leishmania major suspended in 0.1 ml RPMI medium. The mice were kept at the animal house for 3-4 weeks till the lesion was observed. Extracts were administrated orally (400 mg/kg mouse body weight) daily until complete recovery from the lesion. Liver functions tests and histopathological examination of organs (liver, spleen and kidney) were done at the end of study.

[3] = system: leishmania; settings: antileishmanial activity; cited from earlier work
[4] = system: Leishmania amazonensis; settings: growth of Leishmania amazonensis; cited from earlier work
[5] = system: Promastigotes of the reference strain of Leishmania major; assay: In vitro anti-leishmanial activity, MTT assay on promastigotes; format: cell-based; settings: 72 hours, 26 °C
Method: Parasite: Promastigotes of the reference strain of Leishmania major were grown in RPMI-1640 medium supplemented with 10.000 Unites penicillin 10 µg of treptomycin/ml and 10 % heat inactivated fetal calf serum in 50 ml Nunc flasks at 26 °C in a dark environment. All experiments were performed with parasite cultures in the stationary phase by allowing them to grow for seven days.
Promastigotes were resuspended in fresh medium to achieve 10^6 parasites/ml and were seeded in 96-well Nunc culture plate, each well containing 100 µl medium with different concentrations of total extracts for both fungi (Drechslera rostrata and Eurotium tonophilum) in addition to the four isolated compounds. Control wells received only culture medium. The plates were incubated in 26 °C for 72 hours and Promastigotes viability was evaluated by the quantitative colorimetric MTT assay. The alteration of MTT to the formazan product by the mitochondrial electron transport chain is an indicator of cell viability, and a decrease in the amount of MTT converted indicated toxicity to the cell.
Briefly, the MTT labeling reagent was added to each well to the final concentration of 0.25 mg/ml. After incubation for 3 hours at 26 °C, DMSO was added to dissolve the formazan crystals and obtain a homogeneous blue solution suitable for measurement of the absorbance with an enzyme-linked immunosorbent assay plate reader (wave length 492).
Percent growth inhibition of the parasite was calculated by the following formula: % of inhibition = ((OD control-OD drugs))/(OD control) X 100 [formula]
The concentration inhibiting 50 % of the parasite growth (IC50) was calculated after evaluating percent growth inhibition at different concentrations. Reference compound was Pentostam.
Stock solutions of the total extracts , compounds, plus control drugs, were prepared at a concentration of 20 mg mL-1 in DMSO (Sigma, UK), and diluted to appropriate concentrations prior to assays. IC50 values were calculated with MSXLFIT (IDBS, UK) Djalma et al., J. Braz. Chem. Soc. Vol. 20, No. 4, 644-651, (2009).

[6] = system: Leishmania spp; settings: growth of Leishmania spp; cited from earlier work

| Molecule | Mean + SD lesion size(mm), day 1 of treatment [2] | Mean + SD lesion size(mm), day 4 of treatment [2] | Mean + SD lesion size(mm), day 8 of treatment [2] | Mean + SD lesion size(mm), day 11 of treatment [2] | Mean + SD lesion size(mm), day 15 of treatment [2] | Mean + SD lesion size(mm), day 18 of treatment [2] | Mean + SD lesion size(mm), day 25 of treatment [2] | Mean + SD lesion size(mm), day 28 of treatment [2] | further results |
| --- | --- | --- | --- | --- | --- | --- | --- | --- | --- |
| C=CCCC/C=C\C/C=C\CCCCCCCc1cc(O)cc(O)c1 [5-heptadeca-8'Z,11'Z,16-trienylresorcinol] |  |  |  |  |  |  |  |  | IC50 [1]: 3.6 µg/mL (≈ 10.5 µM) |
| O.O.O.O.O.O.O.O.O.O=C([O-])[C@@H]1[O][Sb](=[O])([O][Sb]2(=[O])[O][C@H]([C@H](O)CO)[C@H](O)[C@H](C(=O)[O-])[O]2)[O][C@H]([C@H](O)CO)[C@@H]1O.[Na+].[Na+].[Na+] (stereo partly shown) [Pentostam, reference compound] | 9.56±1.3 mm | 8.98±2.0 mm | 7.45±1.8 mm | 6.9±1.3 mm | 5.39±3.1 mm | 4.32±2.1 mm | 3.30±2.1 mm | 2.61±2.5 mm | complete heeling after 28 days ([2]; standard drug, 28 days): did not show complete heeling |
| C/C=C(/C)C(=O)OC[C@H]1C2=C(C[C@H]3[C@H]4C5=C(C(=O)C(C)=C(OC)C5=O)[C@H](O)[C@@H](CN13)N4C)C(=O)C(C)=C(OC)C2=O [Renieramycin A] |  |  |  |  |  |  |  |  | IC50 [3]: 0.2 µg·mL |
| C=C1C(=O)O[C@H]2C[C@@](C)(O)C3=CC[C@](C)(O)[C@@H]3C[C@H]12 [guaianolide] |  |  |  |  |  |  |  |  | IC50 [4]: 2.6 µg/mL (≈ 9.84 µM) |
| 1,8-Dihydroxy-3-methoxy-6-methyl-anthraquinone [Compound H3] | 9.23±1.4 mm | 7.28±2.1 mm | 5.15±1.4 mm | 3.41±1.8 mm | 2.31±2.6 mm | zero | zero | zero | IC50 [5]: 19.38 µg/mL |
| C=C1CCC[C@H]2[C@]1(CC[C@@]1(C)C3=CCCC(C)(C)[C@@H]3CC[C@@H]1C)CC[C@H](C)[C@]2(C)Cc1cc(OS(=O)(=O)O)ccc1OS(=O)(=O)O [isoakaterpin] |  |  |  |  |  |  |  |  | IC50 [6]: 1.05 µM |
| Diisooctylphthalate [Compound H2] | 9.13±1.2 mm | 6.18±1.2 mm | 4.15±1.2 mm | 1.11±1.2 mm | 0.21±1.5 mm | zero | zero | zero | IC50 [5]: 3.2 µg/mL |
| OCC(O)C(O)C(O)C(O)CO (stereo not shown) [Compound H1, Hexane-1,2,3,4,5,6-hexol] | 9.95±1.5 mm | 7.19±1.2 mm | 4.85±1.2 mm | 2.78±1.7 mm | 1.21+1.1 mm | zero | zero | zero | IC50 ([5]; read-out: IC50): 6.5 µg/mL (≈ 35.7 µM) |
